Here are results for one sequence from US20150344535A1, “NEUROTROPHIN-TYROSINE KINASE RECEPTOR SIGNALING” (THE UNIVERSITY OF QUEENSLAND, priority 2012, published 2015).

Experiment [1] deals with T1, EGF receptor (Homo sapiens, UniProt P00533).
T1 construct: GFP; expressed in transfected cells; host or cells: HEK293
The experiment can be described thus: Biotinylated peptide pull down of EGF receptor. Format: binding. The conditions noted are these: lysate of transfected HEK293 cells, FIG. 4D. On the procedure:
For peptide pull down assays, the biotinylated c29 or LC1 control peptides were incubated with protein A-sepharose beads or Dynabeads MyOne Streptavidin T1 (Invitrogen) overnight at 4° C. Cell lysates were then added to the peptide-protein A-sepharose complex or Dynabeads MyOne Streptavidin T1 and incubated for 3 hours at 4° C. Peptide-receptor complexes were washed extensively with RIPA lysis buffer and eluted by boiling in Laemmli sample buffer. For p75^NTR construct immunoprecipitations, HEK293 cells were treated with NGF at 50 ng/ml for 10 minutes 48 hours after transfection with 1 μg DNA per well. Cells were immediately harvested in ice-cold phosphate buffered saline (PBS) and washed twice, then lysed in 1 ml of lysis buffer. Cell lysates were pre-cleared in 75 μl (1:2) protein-G sepharose: PBS by rotation end-over-end for 2 hours at 4′C. Lysates were then incubated with 3-5 μg antibody, either mouse-anti-YFP/GFP (Roche) or rabbit-anti-human p75^NTR intracellular domain antibody (Promega), and rotated end-over-end for 2 hours at 4° C.
Immunoprecipitation was performed by the addition of 75 μl (1:2) protein-G sepharose: PBS and incubation end-over-end for 16 hours at 4° C. The immunoprecipitate was washed 4 times with 1 ml of PBS then eluted in 60 μl 2×LDS sample buffer. […]

Experiment [2] has as its system pErk1/2 and pAkt. The experiment can be described thus: Western blot of pErk1/2 and pAkt in PC12 cell lysates. The experiment is classed as cell-based. The following applies: 24 hours. On the procedure: In biochemical experiments, PC12 and HEK293 cells were lysed for 20 minutes on ice in lysis buffer as described by (Ceni et al., 2010). Briefly, the lysis buffer contained 10 mM Tris-HCl, 150 mM NaCl, 2 mM EDTA, 1% (v/v) NP-40, 1% (v/v) TX-100, 10% Glycerol, 1 mM PMSF, 1 mM Sodium Orthovanadate, 1 μM BB94, 1% (v/v) Roche protease inhibitor cocktail and pH 8.0 (Ceni et al., 2010).
Immunoprecipitation was performed by the addition of 75 μl (1:2) protein-G sepharose: PBS and incubation end-over-end for 16 hours at 4° C. The immunoprecipitate was washed 4 times with 1 ml of PBS then eluted in 60 μl 2×LDS sample buffer. For immunoblotting, samples were boiled for 5 minutes, separated by SDS-PAGE and transferred onto nitrocellulose membranes, then western blotted using standard protocols (see Example 1 for antibodies used).
The observed functional effects on neurite outgrowth and survival were next correlated with enhanced activation of signal transduction pathways that mediate the trophic effects of TrkA. Lysates of cells treated for 24 hours with NGF alone or in combination with c29 or scrambled peptide were immunoblotted for pErk1/2 (neurite outgrowth), and the serine/threonine protein kinase Akt (survival). […] Total levels of Erk1/2 or Akt were unaffected by any treatment (FIG. 6 A, B).

Experiment [3] relates to C7-8 spinal cord motor neurons. Nature of the experiment: Motor neuron axotomy (median and ulnar nerve) in neonatal rat. The experiment is classed as in vivo. The conditions noted are these: P4 rat pups, peptide in gel foam at axonal stump, 5-day recovery, relative to contralateral side. Here is the method: Median and ulnar nerve axotomy was performed on 4 day-old Wistar rat pups as previously described (Cheema et al., 1996). Peptides (c29 and vehicle only; 100 nM) were applied via a 1 mm^3 cube of pluronic gel foam that was sutured to the proximal axonal stump (Cheema et al., 1996). After 5 days the animals were perfused with a 4% solution of paraformaldehyde in phosphate buffer. Cervical spinal cords were removed, after which serial sections were cut at 40 μm, mounted onto gelatin-coated slides and stained in 0.1% cresyl violet. Details of the counting procedure have been described previously (Cheema et al., 1994).
We next investigated whether c29 could prevent motor neuron death following growth factor withdrawal in vivo using a neonatal rat axotomy model. Following unilateral median and ulnar nerve transections of postnatal day 4 (P4) rat pups, c29 or the vehicle protein transduction domain (PTD4) was applied to the proximal site of transaction in a small cube of gel foam. After a 5-day recovery, the number of surviving C7-8 spinal cord motor neurons relative to the contralateral side was determined by histological counts. Such an axotomy causes 50% of the ipsilateral motor neurons to die (Cheema et al., 1996), with control peptide treatment having no effect on this degree of cell death (FIG. 7E, F). […]

Setting [4] is: 10 ng/ml NGF, relative to 10 ng/ml NGF and scrambled peptide.

For “KRWNSCKQNKQGANSRPVNQTPPPEGEKL (c29- Fragment of p75ICD) [29 amino acid peptide of the p75NTR juxtamembrane Chopper domain; delivered to cells linked to PTD4 or disulfide-linked carrier]”, the “pull down of EGF receptor” value in experiment [1] is “did not pull down”. Besides, in experiment [2] (setting [4]), the “increase in pAkt” value is given as 2 fold and the “increase in pErk1/2” value amounted to 2 fold. In experiment [2] (absence of NGF), the pAkt signalling result is given as “no effect” and the pErk1/2 signalling result was “no effect”. Further, the “axotomised neurons that died” value in experiment [3] was 12%.
